Source: patent publication EP1200093B1, “USE OF 2-AMINO-4-(4-FLUORONAPHTH-1-YL)-6-ISOPROPYLPYRIMIDINE IN THE TREATMENT OF GI DISORDERS” (priority 1999, dated 2001)
Values joined by “and” are separate entries in the source; they are usually repeats but may differ in a detail not shown here. Equal values may be shown once.

What was measured:
[1] = tested on: 5-HT receptor in human colon longitudinal muscle; assay: cell-based; format: cell-based
[2] = target: T1, 5-HT receptor in human colon longitudinal muscle (Homo sapiens, UniProt P41595); assay: cell-based; format: cell-based
T1 construct: Longitudinal muscle strips (2mm wide by 20mm long) were then cut from the tissue between the taenia coli; from tissue; host or cells: human colon longitudinal muscle strips, electrically stimulated

5-HT2B [3] = target: T2, 5-HT2B (Homo sapiens, UniProt P41595); details: human receptor, comparison data; cited from earlier work
5-HT4 [4] = target: T3, 5-HT4 (Homo sapiens, UniProt Q13639); details: human receptor, comparison data; cited from earlier work
5-HT2B [5] = target: T2, 5-HT2B; details: * responses to 5-HT in human isolated tissues; cited from earlier work
5-HT4 [6] = target: T3, 5-HT4; details: * responses to 5-HT in human isolated tissues; cited from earlier work
5-HT2C = target: T4, 5-HT2C (Homo sapiens, UniProt P28335); details: * responses to 5-HT in human isolated tissues; cited from earlier work
T4 sequence (P28335 33-458): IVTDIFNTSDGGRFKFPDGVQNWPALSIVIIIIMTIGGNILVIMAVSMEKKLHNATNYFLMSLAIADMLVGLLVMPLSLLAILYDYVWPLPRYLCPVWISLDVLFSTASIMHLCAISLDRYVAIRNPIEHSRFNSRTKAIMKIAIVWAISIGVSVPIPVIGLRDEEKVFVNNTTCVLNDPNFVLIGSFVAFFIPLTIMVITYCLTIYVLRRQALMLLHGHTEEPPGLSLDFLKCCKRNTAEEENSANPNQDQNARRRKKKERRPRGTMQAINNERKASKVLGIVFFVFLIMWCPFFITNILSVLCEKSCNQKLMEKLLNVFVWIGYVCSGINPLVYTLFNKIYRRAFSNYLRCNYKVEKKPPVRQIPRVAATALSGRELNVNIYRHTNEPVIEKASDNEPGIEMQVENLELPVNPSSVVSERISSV

T1 sequence (P41595 whole entry): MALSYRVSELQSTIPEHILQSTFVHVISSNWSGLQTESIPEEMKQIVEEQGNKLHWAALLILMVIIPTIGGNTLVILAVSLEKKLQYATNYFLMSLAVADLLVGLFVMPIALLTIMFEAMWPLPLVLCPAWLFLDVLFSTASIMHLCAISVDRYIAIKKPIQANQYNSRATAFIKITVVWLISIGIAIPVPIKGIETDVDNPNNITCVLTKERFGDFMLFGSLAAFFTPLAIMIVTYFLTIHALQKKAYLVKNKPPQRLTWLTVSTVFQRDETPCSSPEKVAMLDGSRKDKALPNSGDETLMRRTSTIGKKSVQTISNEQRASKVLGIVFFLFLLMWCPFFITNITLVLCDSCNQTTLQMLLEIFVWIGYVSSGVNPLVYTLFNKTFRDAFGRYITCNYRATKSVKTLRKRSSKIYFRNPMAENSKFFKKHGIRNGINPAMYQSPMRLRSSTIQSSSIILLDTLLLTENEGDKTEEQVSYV
T2 sequence (P41595 whole entry): as above
T3 sequence (Q13639 whole entry): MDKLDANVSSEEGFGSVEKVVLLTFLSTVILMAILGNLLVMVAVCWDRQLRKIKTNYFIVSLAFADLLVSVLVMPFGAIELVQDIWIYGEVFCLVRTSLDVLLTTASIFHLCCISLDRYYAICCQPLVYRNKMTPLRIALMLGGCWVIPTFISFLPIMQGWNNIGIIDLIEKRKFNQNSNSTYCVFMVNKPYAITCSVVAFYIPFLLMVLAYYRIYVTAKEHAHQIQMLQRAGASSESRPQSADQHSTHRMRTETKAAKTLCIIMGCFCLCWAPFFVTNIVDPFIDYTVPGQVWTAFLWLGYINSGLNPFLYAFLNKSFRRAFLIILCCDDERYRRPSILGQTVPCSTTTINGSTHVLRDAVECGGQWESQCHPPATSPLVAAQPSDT

Row | Structure (SMILES) | EC50 [2] [nM] | mean pEC50, 5-HT2B (5-HT2B [3]) | mean pEC50, 5-HT4 (5-HT4 [4]) | mean pKB or pA2, 5-HT4 (5-HT4 [6]) | also measured
1 | CN1[C@@H]2CC[C@H]1C[C@@H](OC(=O)C(CO)c1ccccc1)C2 (stereo partly shown) [atropine] | – | – | – | – | effect on electrically-induced contractile response [1]: inhibited
2 | Cc1[nH]c2ccc(O)cc2c1CCN [2-Me-5-HT] | 100 | 6.7 | 6.0 | – | –
3 | COc1ccc2[nH]cc(CCN)c2c1 [5-MeOT] | 158 | 7.6 | 6.2 | – | –
4 | CC(N)Cc1c[nH]c2ccc(O)cc12 (stereo not drawn) [Alpha-Me-5-HT] | 3.16 | 8.4 | 6.2 | – | –
5 | Cc1cc2c(cc1Cl)N(C(=O)Nc1ccc(Oc3cccnc3C)nc1)CC2 [SB 242084] | – | – | – | – | Kb [2]: 501 nM
6 | Cn1ccc2cc3c(cc21)CCN3C(=O)Nc1cccnc1 [SB 206553] | – | – | – | – | mean pKB or pA2, 5-HT2B (5-HT2B [5]): 9.0*; Affinity (pKB) at the 5-HT receptor in human colon longitudinal muscle ([2]; antagonism of 5-HT in electrically-stimulated strips, at least 3 donors (RS127445: n>4 donors)): 8.5±0.1
7 | O=C(c1ccc(F)cc1)C1CCN(CCn2c(=O)[nH]c3ccccc3c2=O)CC1 [Ketanserin] | – | – | – | 4.7* | –
8 | CC[C@@H](CO)NC(=O)[C@@H]1C=C2c3cccc4c3c(cn4C)C[C@H]2N(C)C1 [Methysergide] | – | – | – | <5.0* | mean pKB or pA2, 5-HT2C (5-HT2C): 8.9*
9 | CSc1ccc2c(c1)C(N1CCN(C)CC1)Cc1ccccc1S2 (stereo not shown) [Methiothepin] | – | – | – | <6.0* | –
10 | CC(C)c1cc(-c2ccc(F)c3ccccc23)nc(N)n1 [RS127445, 2-amino-4-(4-fluoronaphth-1-yl)-6-isopropylpyrimidine] | – | – | – | – | Kb [2]: 0.316 nM and 0.355 nM; Schild analysis, slope of plot ([2]; antagonism of 5-HT, RS127445 0.3nM to 100nM): 0.93±0.17
